One data set deals with HBsAg. The settings on record: read-out: EC50, Extracell. HBsAg reduction; HepG2.2.15 cells.
The subject of another data set is SRSF1 protein. The data set is described as follows: Target protein reduction by Western blot in HepG2.2.15 cells. The settings on record: 10 nM siRNA, 72 h. It counts as cell-based, human. (In general: In western blotting, separated proteins are transferred to a membrane and probed.)
In a further data set the test system is HepG2.2.15 cells. The data set is described as follows: HepG2.2.15 cell viability, CellTiter-Glo. The following applies: read-out: CC50, HepG2.2.15 cell viability; highest concentration tested 80 nM. For orientation: Cellular ATP, detected with luciferase, serves as a proxy for viable cell number.
The subject of another data set is HBeAg. The following applies: 10 nM siRNA transfected into cells.
Data set [1] has as its system HCoV-OC43. Put plainly: OC43 virion RNA, Branched DNA assay, infected HCT8 cells. The data set is classed as cell-based, human coronavirus OC43. Details: reduction in OC43 vRNA: dose or concentration left out as unconfirmed. The settings on record: for OC43 vRNA reduction siRNA and siGRP78: 10 nM siRNA along with 10 nM of siRNA targeting GRP78, HCT8 cells; for OC43 vRNA reduction: 10 nM siRNA.

A further data set concerns SRSF1 mRNA. Put plainly: Target mRNA reduction by RT-qPCR in HepG2.2.15 cells. The data set is classed as cell-based, human. The settings on record: 10 nM siRNA. Background: In qPCR the cycle at which signal appears reflects the starting amount.
The subject of another data set is GRP78 protein. The data set is described as follows: Target protein reduction by Western blot in HepG2.2.15 cells. It counts as cell-based, human. The settings on record: 10 nM siRNA, 72 h.
In another data set the test system is GRP78 mRNA. The data set is described as follows: Target mRNA reduction by RT-qPCR in HepG2.2.15 cells. It counts as cell-based, human. The settings on record: 10 nM siRNA.
Data set [2] deals with HCoV-OC43. Put plainly: OC43 virion RNA, RT-qPCR of the OC43 N gene, infected HCT8 cells. The data set is classed as cell-based, human coronavirus OC43. Details: dose or concentration left out as unconfirmed.

By EC50 is commonly meant the concentration giving half of the maximal effect. Usually CC50 stands for the concentration at which the toxic effect on the cells reaches its halfway point. In the case of “22 (CAUCUACGUGGGUAACUUAUUUAAGUUACCCACGUAGAUGUU; siRNA; Self-complementary hairpin strand, chemistry not given here, further chemistry not given here; listed as Homo sapiens) [compound 22]”, the EC50 in the data set with HBsAg worked out at 0.9 nM. The “Target protein reduction in HepG2.2.15 cells” value (shortened to “Target protein reduction”) in the data set with SRSF1 protein stood at 92 ± 20%. For the same compound, in the data set on HepG2.2.15 cells, the CC50 is more than 80 nM. Also, the “HBeAg reduction HepG2.2.15 cells” value in the data set with HBeAg was found to be 33.5 ± 5%. Besides, the “OC43 vRNA reduction siRNA and siGRP78” value in the data set on HCoV-OC43 [1] was 85 ± 4%. Besides, the “OC43 vRNA reduction” value with HCoV-OC43 [1] (HCT8 cells) stood at 36 ± 3%. In addition, in the data set on SRSF1 mRNA, the “Target RNA reduction in HepG2.2.15 cells” value is 71 ± 1%.
For “23 (CUGGAUAACACUAAGUUUAUUUAAACUUAGUGUUAUCCAGUU; siRNA; Self-complementary hairpin strand, chemistry not given here, further chemistry not given here; listed as Homo sapiens) [compound 23]”, the EC50 in the data set with HBsAg was determined as 3.9 nM. Moreover, in the data set with SRSF1 protein, the “Target protein reduction” value amounted to 81 ± 11%. The CC50 in the data set with HepG2.2.15 cells is more than 80 nM. Besides, the “HBeAg reduction HepG2.2.15 cells” value with HBeAg was 29.8 ± 3%.
With “21 (CUGUUACAAUCAAGGUCUATTUAGACCUUGAUUGUAACAGTT; siRNA; Self-complementary hairpin strand, chemistry not given here, further chemistry not given here; listed as Homo sapiens) [compound 21]”, in the data set with HBsAg, the EC50 was 1.6 nM. Besides, the “Target protein reduction” value in the data set on GRP78 protein was 59 ± 2%. In addition, in the data set with HepG2.2.15 cells, the 50% cytotoxic concentration (CC50) is more than 80 nM. Moreover, in the data set on HBeAg, the “HBeAg reduction HepG2.2.15 cells” value turned out to be 61.5 ± 10%. Moreover, the “OC43 vRNA reduction siRNA and siGRP78” value with HCoV-OC43 [1] came out at 90 ± 4%. In addition, the “OC43 vRNA reduction” value in the data set with HCoV-OC43 [1] (HCT8 cells) was determined as 89 ± 8%. Besides, in the data set with GRP78 mRNA, the “Target RNA reduction in HepG2.2.15 cells” value is recorded as 90 ± 3%.
With `CCC(CC)COC(=O)[C@H](C)N[P@](=O)(OC[C@H]1O[C@@](C#N)(c2ccc3c(N)ncnn23)[C@H](O)[C@@H]1O)Oc1ccccc1` [Remdesivir, reference compound], in the data set with HCoV-OC43 [1] (HCT8 cells), the “reduction in OC43 vRNA” value is on record as “more than 98%”. Further, in the data set on HCoV-OC43 [2], the “OC43 virion production remaining” value is listed as “less than 5%”.

The values above are taken from patent publication US11613750B2, “Methods of reducing virus molecule levels” (priority 2019, dated 2023).
